Earlier results in paper PMC12385607 (ACS medicinal chemistry letters, 2025).

Assays:
[1] = 30 min post-oral administration
[2] = orally available 2-PMPA prodrugs

SMILES	Clearance from plasma after intravenous administration (in words)	Plasma concentration of 2-PMPA after oral administration of 2-PMPA itself [1]	Brain distribution of 2-PMPA (in words) [2]
O=C(O)CCC(CP(=O)(O)O)C(=O)O (stereo not drawn) [2-PMPA, 2-(phosphonomethyl)pentanedioic acid]	quickly cleared from the plasma	~ 250 nM	–
Cc1oc(=O)oc1COC(=O)CCC(CP(=O)(OCc1oc(=O)oc1C)OCc1oc(=O)oc1C)C(=O)OCc1oc(=O)oc1C (stereo not drawn) [tetra-ODOL-2-PMPA]	–	–	limited brain distribution
